Measured values as given in patent US9963445B2, “Chemical compounds” (SYNGENTA PARTICIPATIONS AG, priority 2013, dated 2018).

Tests used:
Format in all cases: in vivo
[1] = test system: Setaria faberi; test: Post-emergence herbicidal activity, glasshouse pot test; design: key: 0 = no damage to plant, 5 = total damage to plant; details: Application post-emergence, rate 1000 g/ha, evaluated after 13 days
Outline: (§1)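 Seeds sown in standard soil in pots, grown 8 days in glasshouse (24/16 °C day/night, 14 h light, 65% humidity), then sprayed with aqueous solution from active ingredient formulated in acetone/water (50:50) with 0.5% Tween 20. Plants regrown under same conditions, watered twice daily; damage scored after 13 days (0 none–5 total).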

[2] = test system: Alopecurus myosuroides; test: as above; design: key: 0 = no damage to plant, 5 = total damage to plant; details: Application post-emergence, rate 1000 g/ha, evaluated after 13 days
Outline: as §1

[3] = test system: Abutilon theophrasti; test: as above; design: key: 0 = no damage to plant, 5 = total damage to plant; details: Application post-emergence, rate 1000 g/ha, evaluated after 13 days
Outline: as §1

[4] = test system: zea mays; test: as above; design: key: 0 = no damage to plant, 5 = total damage to plant; details: Application post-emergence, rate 1000 g/ha, evaluated after 13 days
Outline: as §1

[5] = test system: Echinochloa crus-galli; test: as above; design: key: 0 = no damage to plant, 5 = total damage to plant; details: Application post-emergence, rate 1000 g/ha, evaluated after 13 days
Outline: as §1

[6] = test system: Amaranthus retroflexus; test: as above; design: key: 0 = no damage to plant, 5 = total damage to plant; details: Application post-emergence, rate 1000 g/ha, evaluated after 13 days
Outline: as §1

[7] = test system: Setaria faberi; test: Pre-emergence herbicidal activity, glasshouse pot test; details: pre-emergence spray, rate 1000 g/ha, evaluated after 13 days, scale 0-5
Outline: (§2)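 Seeds sown in standard soil were sprayed one day after sowing, before emergence, with compound formulated in acetone/water (50:50) plus 0.5% Tween 20. Plants were grown at 24/16 °C day/night, 14 h light, 65% humidity, watered twice daily, and damage was scored after 13 days (0 = none, 5 = total).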

[8] = test system: Alopecurus myosuroides; test: as above; details: pre-emergence spray, rate 1000 g/ha, evaluated after 13 days, scale 0-5
Outline: as §2

[9] = test system: Abutilon theophrasti; test: as above; details: pre-emergence spray, rate 1000 g/ha, evaluated after 13 days, scale 0-5
Outline: as §2

[10] = test system: zea mays; test: as above; details: pre-emergence spray, rate 1000 g/ha, evaluated after 13 days, scale 0-5
Outline: as §2

[11] = test system: Echinochloa crus-galli; test: as above; details: pre-emergence spray, rate 1000 g/ha, evaluated after 13 days, scale 0-5
Outline: as §2

[12] = test system: Amaranthus retroflexus; test: as above; details: pre-emergence spray, rate 1000 g/ha, evaluated after 13 days, scale 0-5
Outline: as §2

COC1=C(Br)C(=O)N(c2cc(C(F)(F)F)ccn2)C1O (stereo not drawn) [AJ1, 4-bromo-2-hydroxy-3-methoxy-1-[4-(trifluoromethyl)-2-pyridyl]-2H-pyrrol-5-one] was tested, and the “SETFA herbicidal damage score” value [1] was 5, the “ALOMY herbicidal damage score” value [2] was 5 and the “ABUTH herbicidal damage score” value [3] was 5. For the same compound, the “ZEAMX herbicidal damage score” value [4] was 2, the “ECHCG herbicidal damage score” value [5] was 5 and the “AMARE herbicidal damage score” value [6] was 5. The “SETFA damage score, application pre-emergence” value (shortened to “SETFA damage score”) [7] was 5, the “ALOMY damage score, application pre-emergence” value (from here on “ALOMY damage score”) [8] was 4 and the “ABUTH damage score, application pre-emergence” value (“ABUTH damage score” for short) [9] was 5. For the same compound, the “ZEAMX damage score, application pre-emergence” value (“ZEAMX damage score” for short) [10] was 2, the “ECHCG damage score, application pre-emergence” value (“ECHCG damage score” for short) [11] was 5 and the “AMARE damage score, application pre-emergence” value (“AMARE damage score” for short) [12] was 4.

For COC1=C(OC)C(O)N(c2cc(F)ccn2)C1=O (stereo not drawn) [AK3], the “SETFA herbicidal damage score” value [1] was 5, the “ALOMY herbicidal damage score” value [2] was 4 and the “ABUTH herbicidal damage score” value [3] was 5. For the same compound, the “ZEAMX herbicidal damage score” value [4] was 4, the “ECHCG herbicidal damage score” value [5] was 5 and the “AMARE herbicidal damage score” value [6] was 4. The “SETFA damage score” value [7] was 3, the “ALOMY damage score” value [8] was 2 and the “ABUTH damage score” value [9] was 5. For the same compound, the “ZEAMX damage score” value [10] was 2, the “ECHCG damage score” value [11] was 4 and the “AMARE damage score” value [12] was 5.

With COC1=C(OC)C(O)N(c2cc(C(F)(F)F)c(C(F)(F)F)cn2)C1=O (stereo not drawn) [AK4] the “SETFA herbicidal damage score” value [1] was 3, the “ALOMY herbicidal damage score” value [2] was 3 and the “ABUTH herbicidal damage score” value [3] was 5. For the same compound, the “ZEAMX herbicidal damage score” value [4] was 2, the “ECHCG herbicidal damage score” value [5] was 5 and the “AMARE herbicidal damage score” value [6] was 5. The “SETFA damage score” value [7] was 0, the “ALOMY damage score” value [8] was 1 and the “ABUTH damage score” value [9] was 1. For the same compound, the “ZEAMX damage score” value [10] was 1, the “ECHCG damage score” value [11] was 0 and the “AMARE damage score” value [12] was 1.

With COC1=C(OC)C(O)N(c2cc(Br)ccn2)C1=O (stereo not drawn) [AK5] the “SETFA herbicidal damage score” value [1] was 5, the “ALOMY herbicidal damage score” value [2] was 5 and the “ABUTH herbicidal damage score” value [3] was 5. For the same compound, the “ZEAMX herbicidal damage score” value [4] was 0, the “ECHCG herbicidal damage score” value [5] was 5 and the “AMARE herbicidal damage score” value [6] was 5. For the same compound, the “SETFA damage score” value [7] was 1, the “ALOMY damage score” value [8] was 1 and the “ABUTH damage score” value [9] was 0. For the same compound, the “ZEAMX damage score” value [10] was 0, the “ECHCG damage score” value [11] was 4 and the “AMARE damage score” value [12] was 1.

In the case of COC1=C(OC)C(O)N(c2cc(OC)ccn2)C1=O (stereo not drawn) [AK6], the “SETFA herbicidal damage score” value [1] is reported as 0, the “ALOMY herbicidal damage score” value [2] is reported as 1 and the “ABUTH herbicidal damage score” value [3] is reported as 1. For the same compound, the “ZEAMX herbicidal damage score” value [4] was 0, the “ECHCG herbicidal damage score” value [5] was 1 and the “AMARE herbicidal damage score” value [6] was 0. The “SETFA damage score” value [7] was 0, the “ALOMY damage score” value [8] was 0 and the “ABUTH damage score” value [9] was 0. The “ZEAMX damage score” value [10] was 0, the “ECHCG damage score” value [11] was 0 and the “AMARE damage score” value [12] was 0.

COC1=C(OC)C(O)N(c2cc(Cl)c(Cl)cn2)C1=O (stereo not drawn) [AK7] was tested, and the “SETFA herbicidal damage score” value [1] was 5, the “ALOMY herbicidal damage score” value [2] was 4 and the “ABUTH herbicidal damage score” value [3] was 5. The “ZEAMX herbicidal damage score” value [4] was 1, the “ECHCG herbicidal damage score” value [5] was 5 and the “AMARE herbicidal damage score” value [6] was 5. For the same compound, the “SETFA damage score” value [7] was 0, the “ALOMY damage score” value [8] was 0 and the “ABUTH damage score” value [9] was 2. For the same compound, the “ZEAMX damage score” value [10] was 0, the “ECHCG damage score” value [11] was 4 and the “AMARE damage score” value [12] was 0.

In the case of COC1=C(OC)C(O)N(c2cc(C(F)(F)F)ccn2)C1=O (stereo not drawn) [AK8], the “SETFA herbicidal damage score” value [1] is reported as 5, the “ALOMY herbicidal damage score” value [2] is reported as 4 and the “ABUTH herbicidal damage score” value [3] is reported as 5. The “ZEAMX herbicidal damage score” value [4] was 3, the “ECHCG herbicidal damage score” value [5] was 5 and the “AMARE herbicidal damage score” value [6] was 5. The “SETFA damage score” value [7] was 3, the “ALOMY damage score” value [8] was 3 and the “ABUTH damage score” value [9] was 5. The “ZEAMX damage score” value [10] was 2, the “ECHCG damage score” value [11] was 4 and the “AMARE damage score” value [12] was 5.

In the case of CC1=C(Cl)C(=O)N(c2cc(C(C)(C)C)c(Cl)nn2)C1O (stereo not drawn) [BF1], the “SETFA herbicidal damage score” value [1] is reported as 4, the “ALOMY herbicidal damage score” value [2] is reported as 4 and the “ABUTH herbicidal damage score” value [3] is reported as 5. The “ZEAMX herbicidal damage score” value [4] was 2, the “ECHCG herbicidal damage score” value [5] was 5 and the “AMARE herbicidal damage score” value [6] was 5. For the same compound, the “SETFA damage score” value [7] was 3, the “ALOMY damage score” value [8] was 2 and the “ABUTH damage score” value [9] was 4. For the same compound, the “ZEAMX damage score” value [10] was 1, the “ECHCG damage score” value [11] was 2 and the “AMARE damage score” value [12] was 5.
